For series [1], the system named is BEL-7404 tumor cell line. Briefly: Antitumor activity against human Bel7404 cells xenografted in BALB/c nude mouse assessed as effect on tumor volume at 2 mg/kg, iv administered once in two days for 24 consecutive days measured on day 6 of compound dosing relative to control. It counts as functional. On the technique in general: In xenograft studies the graft and the host belong to different species.

Series [2] deals with BEL-7404 tumor cell line. Briefly: Antitumor activity against human Bel7404 cells xenografted in BALB/c nude mouse assessed as effect on tumor volume at 0.5 mg/kg, iv administered once in two days for 24 consecutive days measured on day 13 of compound dosing relative to control. It counts as functional.
For series [3], the system named is BEL-7404 tumor cell line. Description: Antitumor activity against human Bel7404 cells xenografted in BALB/c nude mouse assessed as effect on tumor volume at 0.5 mg/kg, iv administered once in two days for 24 consecutive days measured on day 17 of compound dosing relative to control. It counts as functional.
In series [4] the test system is BEL-7404 tumor cell line. Description: Antitumor activity against human Bel7404 cells xenografted in BALB/c nude mouse assessed as effect on tumor volume at 1 mg/kg, iv administered once in two days for 24 consecutive days measured on day 24 of compound dosing relative to control. It counts as functional.
For series [5], the system named is Mus musculus. Description: Toxicity in human Bel7404 cells xenografted BALB/c mouse assessed as effect on body weight at 2 mg/kg, iv administered once in two days for 24 consecutive days measured on day 1 of compound dosing (reference value: 25.36 +/- 0.97 g). It counts as organism-based. The following applies: in vivo.
Series [6] relates to Mus musculus. Description: Toxicity in human Bel7404 cells xenografted BALB/c mouse assessed as effect on body weight at 0.5 mg/kg, iv administered once in two days for 24 consecutive days measured on day 3 of compound dosing (reference value: 25.39 +/- 1 g). Particulars: in vivo. It counts as organism-based.
Series [7] concerns Mus musculus. Briefly: Toxicity in human Bel7404 cells xenografted BALB/c mouse assessed as effect on body weight at 1 mg/kg, iv administered once in two days for 24 consecutive days measured on day 24 of compound dosing (reference value: 26.29 +/- 1.36 g). Particulars: in vivo. It counts as organism-based.
A short description of series [8]: Plasma concentration in Sprague-Dawley rat at 3 mg/kg, iv administered as bolus measured at […] by LC/MS/MS analysis. It counts as ADME, organism-based.
Series [9] in a line: Plasma concentration in Sprague-Dawley rat at 3 mg/kg, iv administered as bolus measured at 8 hrs by LC/MS/MS analysis. It counts as ADME, organism-based.
Series [10] in a line: Initial concentration in Sprague-Dawley rat at 3 mg/kg, iv administered as bolus after 24 hrs by LC/MS/MS analysis. It counts as ADME, organism-based. The following applies: in vivo.

Turning to `CC(C)C[C@H](NC(=O)[C@H](Cc1ccccc1)NC(=O)N1CCc2ccccc2C1)B(O)O`, the “fold change (FC)” value in the series on BEL-7404 tumor cell line [1] came to 1.56; in the series with BEL-7404 tumor cell line [2], 3.18; with BEL-7404 tumor cell line [3], 3.76; in the series with BEL-7404 tumor cell line [4], 4.73. Further, the Activity was 24.72 g in the series with Mus musculus [5], 23.72 g with Mus musculus [6] and 25.48 g in the series on Mus musculus [7]. This compound also came in with a concentration at […] in [8] of 715 ng/mL. The same compound had a concentration at 8 h in series [9] of 10.2 ng/mL. Further, the C0 at 24 h in [10] came to 4080 ng/mL.

Source of the values: ChEMBL document CHEMBL4041506, “Urea-containing peptide boronic acids as potent proteasome inhibitors” (Eur J Med Chem, 2017).
